Reference: patent US10851132B2, “Protein based adhesive composition and method” (SEWON BIOTECHNOLOGY INC., priority 2015, dated 2020)
Ends that are not written are not given here.

What was measured:
[1] = Affinity chromatography with heparin-agarose beads; type: binding; details: Examples 11 and 12; FIG. 11, FIG. 12
Description: (§1) For chromatography, heparin-agarose beads (Biovision) and GlcNAc-agarose beads (Sigma) were used. 10 ng of FITC labelled peptide (F-peptide) was mixed in PBS-T buffer with heparin-agarose beads and GlcNAc-agarose beads, each precoated with BSA, and incubated at RT for 10 min. Then the mixture was washed 3 times with PBS-T buffer and resuspended in PBS for fluorescent measurement. For competitive binding experiments, the present peptide not labelled with FITC (Cold) was added to the mixture at various ratios of 1:1, 1:10 (10 times) and 1:100 (100 times) and allowed for incubation followed by fluorescent measurement. As a negative control, only FITC dyes were used to react with the beads. Further fluorescent signals from a sample containing just beads suspended in PBS were used as a blank.
(§2) The peptides as listed and described in Table 2 were synthesized as described in Example 1 and tested for its adhesiveness to heparin and N-Acetylglucosamine (GAG) according to the methods described in Example 5.

[2] = Affinity chromatography with GlcNAc-agarose beads; type: binding; details: Examples 11 and 12; FIG. 11, FIG. 12
Description: as §1, §2

MC3T3-E1 = test: Comparative cell attachment experiment with soluble RGDs (CCK-8); type: cell-based, Mouse; details: RGDs peptides used alone, 0-1000 μM; FIG. 4C
Description: The present peptide A7-1 (10 μM) or A7-1 together with soluble RGDs peptide (0, 10, 100 and 1000 μM) for competition assay were added to anchorage dependent cells MC3T3-E1 in a test tube and incubated for 10 min. Then the cells were transferred to a culture plate and incubated for 10 min in a thermostatic incubator to allow the cells to attach. After 10 min, the medium was removed and the cells were washed 2 times with PBS to remove any unattached cells and a fresh medium without the peptide and CCK-8 (Dojindo) were added to the cells and incubated for 1 hr in a thermostatic incubator. Then the absorbance was measured at 450 nm. The medium mixed with CCK-8 only was used as a blank.

osteoblast MC3TC-E1 = test: Safety in osteoblasts: proliferation, viability, differentiation; type: cell-based, Mouse; details: 0.1, 1, 10 and 100 μM
Description: The safety of the present peptides was determined using osteoblast MC3TC-E1. Osteoblasts were treated with A7-1 peptide as prepared in Example 1 at the concentration of 0.1 μM, 1 μM, 10 μM and 100 μM. Then the effect of the present peptide on the proliferation (FIG. 8A), viability (FIG. 8B) and differentiation (FIG. 8C) on the cells was examined. For testing the effect on the […], MC3T3-E1 and C2C12 cell lines were treated with BMP (rhBMP2, 10 ng/ml for 3 days) and differentiation medium for bone formation for 6 days to induce differentiation. The results were examined by cell staining. It is observed that the present peptide has no effect on the proliferation rate, viability rate or whether or not the cells are differentiated.

KQLVVKFRALPC [SEQ ID NO: 21]
adhesiveness to heparin [1]: working
adhesiveness to N-Acetylglucosamine (GAG) [2]: working

RGDs: soluble RGDs peptides used as a competitor; binds to adhesive molecule integrins (RGDS)
adhesiveness of the cells (MC3T3-E1): decreased in a concentration dependent manner

RQLVVKFRALPC [A7-1]
effect on proliferation rate (osteoblast MC3TC-E1; FIG. 8A): no effect
effect on viability rate (osteoblast MC3TC-E1; FIG. 8B): no effect
effect on whether or not the cells are differentiated (osteoblast MC3TC-E1; FIG. 8C): no effect
